Entries after “also recorded” stand apart in the source; their conditions may differ. Like-named read-outs stand apart in the source and are kept apart here.
What was measured:
[1] = target: T1, mSmo CRD-Fc (Mus musculus, UniProt P56726); assay: Ligand affinity chromatography: mSmo CRD-Fc binding to 20(S)-OHC beads; conditions: free compound added as competitor
T1 construct: made in house; host or cells: 293F suspension cells (secreted)
T1 sequence (P56726 33-183): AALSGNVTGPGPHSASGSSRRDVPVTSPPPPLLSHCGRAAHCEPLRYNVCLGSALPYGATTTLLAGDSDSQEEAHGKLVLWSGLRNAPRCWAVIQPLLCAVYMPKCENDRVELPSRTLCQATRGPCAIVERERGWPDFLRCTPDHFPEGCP
Protocol: After binding was allowed to proceed for 12 hr at 4°C, the resin was washed and captured protein was eluted as described above. The presence of mSmo CRD-Fc was measured by an anti-human HRP-coupled antibody (1:20,000) or anti-human IR800-coupled antibody (1:10,000; for all quantitation, detected by LiCor Odyssey). The presence of zSmo ectodomain protein was measured by colloidal Coomassie staining (GelCode Blue, Pierce/Thermo Scientific). […]

[2] = system: Hh reporter (8xGli-responsive promoter); conditions: cited from earlier work
[3] = target: T2, full-length mSmo (Mus musculus, UniProt P56726); assay: Bodipy-cyclopamine binding to Smo-expressing cells by FACS
T2 construct: expressed in transfected cells
T2 sequence (P56726 33-793): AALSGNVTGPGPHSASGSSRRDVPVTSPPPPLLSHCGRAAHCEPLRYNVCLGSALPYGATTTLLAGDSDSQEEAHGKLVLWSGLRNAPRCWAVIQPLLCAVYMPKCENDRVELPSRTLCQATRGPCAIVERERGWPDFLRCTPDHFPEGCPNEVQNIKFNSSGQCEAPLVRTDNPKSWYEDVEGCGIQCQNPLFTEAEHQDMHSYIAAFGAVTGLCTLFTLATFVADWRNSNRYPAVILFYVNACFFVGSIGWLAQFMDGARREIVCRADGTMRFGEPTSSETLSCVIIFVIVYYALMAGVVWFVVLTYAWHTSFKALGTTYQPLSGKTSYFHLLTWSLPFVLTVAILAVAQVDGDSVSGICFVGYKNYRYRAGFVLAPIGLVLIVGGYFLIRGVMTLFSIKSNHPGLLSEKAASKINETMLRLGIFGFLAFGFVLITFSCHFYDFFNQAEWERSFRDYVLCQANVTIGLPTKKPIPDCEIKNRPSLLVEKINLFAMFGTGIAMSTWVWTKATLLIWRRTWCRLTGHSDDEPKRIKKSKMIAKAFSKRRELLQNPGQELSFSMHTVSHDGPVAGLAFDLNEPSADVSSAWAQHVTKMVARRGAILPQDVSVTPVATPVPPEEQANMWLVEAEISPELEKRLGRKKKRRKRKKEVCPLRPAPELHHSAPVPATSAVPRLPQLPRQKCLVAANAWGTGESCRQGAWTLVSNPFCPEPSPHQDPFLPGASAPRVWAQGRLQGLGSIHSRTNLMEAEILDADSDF

[4] = system: endogenous mSmo in cilia of NIH 3T3 cells; set-up: method as in Rohatgi et al., 2009; conditions: ref Rohatgi et al., 2009; cited from earlier work
[5] = target: T3, YFP-mSmo (Mus musculus, UniProt P56726); assay: Gli1 and Gli3R immunoblot in Smo−/−:YFP-mSmo cells; format: cell-based; conditions: SAG 100 nM, 20(S)-OHC 10 μM
T3 construct: Smo^−/− cells stably expressing full-length (FL) YFP-mSmo or ΔCRD-YFP-mSmo were treated with Shh, SAG (100 nM) or 20(S)-OHC (10 μM); expressed in transfected cells
T3 sequence (P56726 33-793): as above
Protocol: Cultured cells stably expressing YFP-mSmo, ΔCRD-YFP-mSmo, or ΔC-YFP-mSmo were scraped into ice-cold PBS containing SigmaFast Protease inhibitor cocktail (Sigma) and collected as a pellet by centrifugation (1000×g, 10 min, 4°C). Cells were lysed (1 hr, 4°C) by agitation in modified RIPA buffer (50 mM sodium-Tris pH 7.4, 150 mM sodium chloride, 2% NP-40, 0.5% deoxycholate, 0.1% sodium-dodecyl sulfate [SDS], 1 mM dithiothreitol and the SigmaFast Protease inhibitor cocktail). After clarification (20,000×g, 45 min, 4°C), the protein concentration of each lysate was measured using the bicinchoninic acid assay (BCA, Pierce/Thermo Scientific, Rockford, IL). Lysate aliquots containing equal amount of total protein were fractionated on an 8% SDS-PAGE gel and transferred to a nitrocellulose membrane for immunoblotting with anti-Gli1 antibody (#L42B10, 1:500; Cell Signaling, Denvers, MA), anti-GFP antibody (1:5000; Novus, Littleton, CO), anti-Gli3 antibody (AF3690 1:200; R&D, Minneapolis, MN) and anti-p38 antibody (ab31828, 1:2000; Abcam, Cambridge, MA). In Figures 1–4, vertical dashed black lines represent non-contiguous lanes from the same immunoblot juxtaposed for clarity.

[6] = target: T4, ΔCRD-YFP-mSmo (Mus musculus, UniProt P56726, DEL68-184); assay: Hh signaling by ΔCRD-YFP-mSmo in Smo−/− cells (immunoblot, Hh reporter); format: cell-based; conditions: SAG 100 nM, 20(S)-OHC 10 μM
T4 construct: All mSmo mutants were made using Quickchange or PCR methods in the context of a previously described construct encoding full-length mouse Smo (UniProt P56726); expressed in transfected cells
T4 sequence (P56726 with tags, fused parts or gaps DEL68-184): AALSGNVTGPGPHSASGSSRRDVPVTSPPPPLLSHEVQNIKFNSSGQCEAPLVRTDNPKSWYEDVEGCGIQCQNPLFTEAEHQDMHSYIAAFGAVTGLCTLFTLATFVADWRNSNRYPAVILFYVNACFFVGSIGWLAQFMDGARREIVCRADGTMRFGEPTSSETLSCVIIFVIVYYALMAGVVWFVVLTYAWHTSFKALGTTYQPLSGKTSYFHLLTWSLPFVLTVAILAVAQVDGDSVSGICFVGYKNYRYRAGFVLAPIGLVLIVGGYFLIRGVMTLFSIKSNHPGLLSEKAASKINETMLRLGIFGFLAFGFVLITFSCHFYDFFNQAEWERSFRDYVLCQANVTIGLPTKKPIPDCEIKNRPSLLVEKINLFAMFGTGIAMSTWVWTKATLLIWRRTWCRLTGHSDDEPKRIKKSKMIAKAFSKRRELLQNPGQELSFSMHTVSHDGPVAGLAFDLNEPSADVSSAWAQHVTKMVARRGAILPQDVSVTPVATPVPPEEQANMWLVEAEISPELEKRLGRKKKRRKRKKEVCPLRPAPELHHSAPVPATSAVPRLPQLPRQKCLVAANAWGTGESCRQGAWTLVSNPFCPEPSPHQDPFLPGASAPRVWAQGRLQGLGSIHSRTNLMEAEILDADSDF

[7] = system: Hh reporter (8xGli-responsive promoter); assay: Luciferase-based Hh reporter assay; format: cell-based, mouse; conditions: in the absence of Shh
Protocol: For reporter assays in NIH 3T3 cells, a 10-cm plate of cells was transfected with 8 μg of a 4:1 wt/wt ratio of firefly luciferase reporter driven by an 8xGli-responsive promoter ([Sasaki et al., 1997]) and a Renilla luciferase reporter driven by a constitutive TK promoter (Promega, Madison, WI). The next day, transfected cells were seeded into a 96-well plate, grown to confluence, and treated overnight with drugs diluted in media containing 0.5% fetal bovine serum (FBS). For reporter assays in Smo^−/− cells, 25,000 cells per well were seeded in a 24-well plate 24 hr prior to transfection. […] Activity of both reporters was measured using the Dual-Luciferase Reporter kit (Promega) and read on a Synergy H1 Hybrid Multi-Mode Microplate Reader (BioTek, Winooski, VT). […]
For Hh reporter assays, each point is reported as the mean ± standard deviation (SD) derived from triplicates. […] Relative luciferase activity was calculated by dividing Gli luciferase by Renilla luciferase luminescence. Fold-change in reporter activity was calculated by dividing each replicate by the mean reporter activity of the vehicle-treated control. Normalized (% of max) Hh reporter activity was calculated by setting the maximum value of a set to 100% and zero to 0% using the ‘normalize’ function of GraphPad Prism. […]

[8] = target: T5, mSmo D477H (Mus musculus, UniProt P56726, D477H); assay: Hh reporter assay in Smo−/− cells transfected with mSmo D477H; format: cell-based; conditions: Shh, 25 µM, 48 hr
T5 construct: All mSmo mutants were made using Quickchange or PCR methods in the context of a previously described construct encoding full-length mouse Smo (UniProt P56726); expressed in transfected cells; host or cells: Smo-/- mouse embryonic fibroblasts (transient)
T5 sequence (P56726 33-793 D477H): as the sequence (P56726 33-793) above, with D445H counted along it
Protocol: (§1) For reporter assays in NIH 3T3 cells, a 10-cm plate of cells was transfected with 8 μg of a 4:1 wt/wt ratio of firefly luciferase reporter driven by an 8xGli-responsive promoter ([Sasaki et al., 1997]) and a Renilla luciferase reporter driven by a constitutive TK promoter (Promega, Madison, WI). The next day, transfected cells were seeded into a 96-well plate, grown to confluence, and treated overnight with drugs diluted in media containing 0.5% fetal bovine serum (FBS). For reporter assays in Smo^−/− cells, 25,000 cells per well were seeded in a 24-well plate 24 hr prior to transfection. The next day, after a media replacement step, each well was transfected with 1 ng Smo construct and 500 ng of the reporter mix described above, using Xtreme Gene HP (Roche, Mannheim, Germany). After overnight transfection, the media were once again changed to fresh media. Cells were grown to confluence and treated with drugs diluted in media with 0.5% FBS for 48 hr. Activity of both reporters was measured using the Dual-Luciferase Reporter kit (Promega) and read on a Synergy H1 Hybrid Multi-Mode Microplate Reader (BioTek, Winooski, VT). The Gli luciferase to Renilla luciferase ratio is reported as ‘Hedgehog reporter activity’. Each experiment, which included three technical replicates, was repeated at least three times.

[9] = target: T6, mSmoM2 (Mus musculus, UniProt P56726, W539L); assay: Hh reporter assay in NIH 3T3 cells transfected with mSmoM2; format: cell-based; conditions: 10 µM each, 12 hr
T6 construct: All mSmo mutants were made using Quickchange or PCR methods in the context of a previously described construct encoding full-length mouse Smo (UniProt P56726); expressed in transfected cells; host or cells: NIH 3T3 cells
T6 sequence (P56726 33-793 W539L): as the sequence (P56726 33-793) above, with W507L counted along it
Protocol: as §1

[10] = system: Smo; conditions: ref Wang et al., 2012; cited from earlier work

CCC(C)n1ncn(-c2ccc(N3CCN(c4ccc(OCC5COC(Cn6cncn6)(c6ccc(Cl)cc6Cl)O5)cc4)CC3)cc2)c1=O (stereo not shown) [Itraconazole]
inhibition of binding of mSmo CRD-Fc to 20(S)-OHC beads [1]: failed to inhibit the binding

CC(C)CCC[C@@](C)(O)[C@H]1CC[C@H]2[C@@H]3CC=C4C[C@@H](O)CC[C@]4(C)[C@H]3CC[C@@]21C [20(R)-OHC]
activation of Hh signaling ([2]; ref Nachtergaele et al., 2012): cannot activate Hh signaling
inhibition of binding of mSmo CRD-Fc to 20(S)-OHC beads [1]: unable to inhibit binding; also recorded: failed to inhibit

CC(C)CCC[C@@](C)(O)[C@@H]1CC[C@@H]2[C@H]3CC=C4C[C@H](O)CC[C@@]4(C)[C@@H]3CC[C@]21C [ent-20(S)-OHC]
activation of Hh signaling ([2]; ref Nachtergaele et al., 2012): cannot activate Hh signaling
inhibition of binding of mSmo CRD-Fc to 20(S)-OHC beads [1]: unable to inhibit binding

CC(C)CC[C@H](O)[C@@H](C)[C@H]1CC[C@H]2[C@@H]3CC=C4C[C@@H](O)CC[C@]4(C)[C@H]3CC[C@]12C [22(S)-OHC]
activation of Hh signaling ([2]; ref Nachtergaele et al., 2012): cannot activate Hh signaling
inhibition of binding of mSmo CRD-Fc to 20(S)-OHC beads [1]: unable to inhibit binding

Cc1nn(-c2ccccc2)c(C)c1/C=N/N1CCN(Cc2ccccc2)CC1 [SANT-1]
competition of bodipy-cyclopamine binding [3]: can be competed
Shh-induced Smo accumulation in cilia [4]: prevent Shh-induced Smo accumulation in cilia
inhibition of binding of mSmo CRD-Fc to 20(S)-OHC beads [1]: failed to inhibit the binding

CNC1CCC(N(Cc2cccc(-c3ccncc3)c2)C(=O)c2sc3ccccc3c2Cl)CC1 (stereo not shown) [SAG]
Gli3R level [5]: loss of the repressor form of Gli3 (Gli3R) was observed
activation of Hh target gene Gli1 [5]: could activate a Hh target gene, Gli1
response of ΔCRD-YFP-mSmo to agonist (Hh target genes, Gli3R) [6]: retained its ability to respond to SAG
inhibition of binding of mSmo CRD-Fc to 20(S)-OHC beads [1]: failed to inhibit the binding

CC(C)CCN[C@@H](C)[C@H]1CC[C@H]2[C@@H]3CC=C4C[C@@H](O)CC[C@]4(C)[C@H]3CC[C@]12C [22-azacholesterol]
block of signaling induced by SAG or by mSmoM2 ([2]; ref Nedelcu et al., 2013): does not block signaling induced by SAG or by mSmoM2

(3β, 17β)-17-[(2R)-2-hydroxy-hex-4-yn-2-yl]-androst-5-en-3-ol [20(R)-yne]
competition of bodipy-cyclopamine binding [3]: did not affect the binding
activation of Hh signaling [7]: weak activators of signaling
inhibition of binding of mSmo CRD-Fc to 20(S)-OHC beads [1]: blocked the binding
signaling by mSmo D477H [8]: reduced signaling
signaling by mSmoM2 [9]: reduced signaling

CC(C)C(=O)OCC(=O)[C@@]12O[C@H](C3CCCCC3)O[C@@H]1C[C@H]1[C@@H]3CCC4=CC(=O)C=C[C@]4(C)[C@H]3[C@@H](O)C[C@@]12C [Ciclesonide]
competition with cyclopamine for binding to Smo [10]: fail to compete with cyclopamine for binding to Smo

CC(C)CCCC(=O)[C@H]1CC[C@H]2[C@@H]3CC=C4C[C@@H](O)CC[C@]4(C)[C@H]3CC[C@]12C [20-keto-cholesterol]
inhibition of binding of mSmo CRD-Fc to 20(S)-OHC beads [1]: failed to inhibit

CS(=O)(=O)c1ccc(C(=O)Nc2ccc(Cl)c(-c3ccccn3)c2)c(Cl)c1 [Vismodegib]
Shh-induced Smo accumulation in cilia [4]: prevent Shh-induced Smo accumulation in cilia

C#CCC[C@](C)(O)[C@H]1CC[C@H]2[C@@H]3CC=C4C[C@@H](O)CC[C@]4(C)[C@H]3CC[C@@]21C [20(S)-yne]
potency relative to 20(S)-OHC ([2]; Hh-activation potency, ref Nachtergaele et al., 2012): ~10 fold
inhibition of binding of mSmo CRD-Fc to 20(S)-OHC beads [1]: Binding could be inhibited

C#CCCC(=O)[C@H]1CC[C@H]2[C@@H]3CC=C4C[C@@H](O)CC[C@]4(C)[C@H]3CC[C@]12C [20-keto-yne, (3β, 17β)-17-(1-oxopent-4-yn-1-yl)-androst-5-en-3-ol]
competition of bodipy-cyclopamine binding [3]: did not affect the binding
activation of Hh signaling [7]: weak activators of signaling
inhibition of binding of mSmo CRD-Fc to 20(S)-OHC beads [1]: blocked the binding
signaling by mSmo D477H [8]: reduced signaling
signaling by mSmoM2 [9]: reduced signaling

CCCC1O[C@@H]2C[C@H]3[C@@H]4CCC5=CC(=O)C=C[C@]5(C)[C@H]4[C@@H](O)C[C@]3(C)[C@]2(C(=O)CO)O1 (stereo partly shown) [Budesonide]
competition with cyclopamine for binding to Smo [10]: fail to compete with cyclopamine for binding to Smo

Reference: PMC3809587, “Structure and function of the Smoothened extracellular domain in vertebrate Hedgehog signaling” (eLife, 2013)
